Reference: ChEMBL document CHEMBL1201862, “PubChem BioAssay data set” (2004)
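In this assay, cells in 96-well plates receive the compound at five concentrations for 48 hours. Endpoints are linearly interpolated between the surrounding concentrations. GI50 is the concentration that inhibits growth by half.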 Activity calls are given as the source filed them. No stated cut-off is given here; in the data, active = GI50 up to about 1.1 µM and inactive = higher.

Assays:
Test in all cases: NCI tumour cell line growth inhibition, 48 h
[1] = tested on: K562
[2] = tested on: OVCAR-8
[3] = tested on: CCRF-CEM
[4] = tested on: SF-539
[5] = tested on: NCI-H460
[6] = tested on: UACC-257
[7] = tested on: EKVX
[8] = tested on: A549
[9] = tested on: SF-295
[10] = tested on: HCT-116
[11] = tested on: SNB-19
[12] = tested on: SK-MEL-28
[13] = tested on: ACHN
[14] = tested on: SF-268
[15] = tested on: RXF 393
[16] = tested on: SN12C
[17] = tested on: CAKI-1
[18] = tested on: SK-OV-3

Measured: GI50

O=C1c2ccccc2-c2cccc3ccc(Cc4ccccc4)c1c23
inactive: [1] 37.6 µM | [2] > 100 µM | [3] > 100 µM | [4] > 100 µM | [5] > 100 µM | [6] > 100 µM | [7] > 100 µM | [8] > 100 µM | [9] > 100 µM | [10] > 100 µM | [11] > 100 µM | [12] > 100 µM | [13] > 100 µM | [14] > 100 µM | [15] > 100 µM | [16] > 100 µM

CCCN1C(=O)C/C(=C\C(C)=O)Nc2ccccc21
inactive: [1] > 100 µM | [2] > 100 µM | [17] > 100 µM | [3] > 100 µM | [4] > 100 µM | [5] > 100 µM | [7] > 100 µM | [8] > 100 µM | [9] > 100 µM | [10] > 100 µM | [11] > 100 µM | [12] > 100 µM | [13] > 100 µM | [18] > 100 µM | [14] > 100 µM | [15] > 100 µM | [16] > 100 µM

O=S(=O)(c1ccccc1)n1cnc(CCc2ccccc2)n1
inactive: [1] > 100 µM | [2] > 100 µM | [17] > 100 µM | [3] > 100 µM | [4] > 100 µM | [5] > 100 µM | [6] > 100 µM | [8] > 100 µM | [9] > 100 µM | [10] > 100 µM | [12] > 100 µM | [13] > 100 µM | [18] > 100 µM | [14] > 100 µM | [15] > 100 µM | [16] > 100 µM

N#C/N=C1\NCCC(=O)N1CCc1c[nH]c2ccccc12
inactive: [1] > 100 µM | [2] > 100 µM | [3] > 100 µM | [4] > 100 µM | [6] > 100 µM | [7] > 100 µM | [8] > 100 µM | [9] > 100 µM | [10] > 100 µM | [11] > 100 µM | [12] > 100 µM | [18] > 100 µM | [14] > 100 µM | [15] > 100 µM | [16] > 100 µM

CN(C)CCC(/C=C/c1ccccc1)=N\Nc1ccc(Cl)cc1
inactive: [1] 2.21 µM | [2] 2.98 µM | [3] 2.96 µM | [4] 2.25 µM | [5] 2.1 µM | [6] 4.18 µM | [7] 2.49 µM | [8] 2.52 µM | [9] 3.99 µM | [10] 3.51 µM | [11] 11 µM | [12] 12.8 µM | [13] 2.23 µM | [18] 3.99 µM | [14] 2.07 µM | [15] 6.05 µM | [16] 2.29 µM

O=C1/C(=N\O)S(=O)(=O)c2ccccc21
inactive: [1] > 100 µM | [2] > 100 µM | [17] > 100 µM | [3] > 100 µM | [4] > 100 µM | [5] > 100 µM | [6] > 100 µM | [8] > 100 µM | [9] > 100 µM | [10] > 100 µM | [11] > 100 µM | [13] > 100 µM | [18] > 100 µM | [14] > 100 µM | [15] > 100 µM | [16] > 100 µM

O=C(c1ccccc1)c1c(-c2ccccc2)sc2nc3ccccc3nc12
inactive: [1] > 100 µM | [2] > 100 µM | [17] > 100 µM | [3] > 100 µM | [4] 47.9 µM | [5] > 100 µM | [6] > 100 µM | [7] > 100 µM | [8] > 100 µM | [9] 52.7 µM | [10] > 100 µM | [11] 55 µM | [12] > 100 µM | [13] > 100 µM | [18] > 100 µM | [14] > 100 µM | [15] 45.4 µM | [16] > 100 µM

Cc1cc(=O)cc2sc3cc(Cl)ccc3nc1-2
inactive: [1] 4.09 µM | [2] 8.99 µM | [17] 19.7 µM | [3] 1.39 µM | [4] 7.66 µM | [5] 7.55 µM | [6] 16.9 µM | [7] 4.72 µM | [8] 4.49 µM | [9] 6.5 µM | [10] 9.42 µM | [11] 5.93 µM | [12] 17.8 µM | [13] 6.04 µM | [18] 20.7 µM | [14] 6.84 µM | [15] 4.76 µM | [16] 7.45 µM

Cc1cc([N+](=O)[O-])ccc1Nc1cccc(Cl)c1C
inactive: [1] 11.3 µM | [2] 15.1 µM | [17] 11.6 µM | [3] 16.5 µM | [6] 18 µM | [7] 20 µM | [8] 16.6 µM | [9] 18.9 µM | [10] 16.1 µM | [11] 19.1 µM | [12] 16.7 µM | [13] 17.8 µM | [18] 24.3 µM | [14] 17 µM | [15] 17.7 µM | [16] 16.7 µM

O=C(c1ccccc1)c1oc2ccc(Br)cc2c1-c1cnn(-c2ccccc2)c1
inactive: [1] > 100 µM | [2] > 10 µM | [17] > 100 µM | [3] > 100 µM | [5] > 100 µM | [6] > 100 µM | [7] > 10 µM | [8] > 10 µM | [9] > 100 µM | [11] > 100 µM | [12] > 100 µM | [13] > 100 µM | [18] > 100 µM | [14] > 100 µM | [15] > 100 µM | [16] > 100 µM

COC(=O)C(=O)C(C#N)c1c(Cl)cccc1Cl (stereo not drawn)
inactive: [1] > 100 µM | [2] > 100 µM | [17] > 100 µM | [4] > 100 µM | [5] > 100 µM | [6] > 100 µM | [7] > 100 µM | [8] > 100 µM | [9] > 100 µM | [10] > 100 µM | [11] > 100 µM | [12] > 100 µM | [13] > 100 µM | [18] > 100 µM | [14] > 100 µM | [15] > 100 µM | [16] > 100 µM

COC(=O)C1C=CCON2CCc3c(n(C)c4ccccc34)C12 (stereo not drawn)
inactive: [1] > 100 µM | [17] > 100 µM | [3] > 100 µM | [4] > 100 µM | [5] > 100 µM | [7] 92.3 µM | [8] > 100 µM | [9] > 100 µM | [10] > 100 µM | [11] > 100 µM | [12] > 100 µM | [13] > 100 µM | [18] > 100 µM | [14] > 100 µM | [15] > 100 µM | [16] > 100 µM
